Values of other authors in patent US10905116B2, “Antimicrobial fabric assemblies” (Higher Dimension Materials, Inc., priority 2016, dated 2021).

Experiments:
E. coli = details: against E. coli

For [Ag+] [silver ion], the “silver ion concentration enough to cause antimicrobial activity” value (bacterium; released from silver nanoparticles confined in nanoscale cages, conditions of normal water, estimated) is given as 50 parts per billion and the “number of silver ions to kill a single bacterium” value (bacterium; reported) is given as “about 100”.

For [Ag] [silver], the “MIC value (Minimum Inhibitory Value)” value (E. coli) is given as 0.05 to 0.1 µg/mL.
